Results as given in ChEMBL document CHEMBL1201862, “PubChem BioAssay data set” (2004).
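Exposure lasted 48 hours, with cells grown in 96-well plates and compounds tested at five concentrations. GI50 is the concentration that inhibits growth by half.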 Active and inactive are the calls of the source. Rule as the data show it: active = GI50 up to about 1.1 µM and inactive = higher.

Tests used:
Assay in all cases: NCI-60 cell line screen, 48 h
[1] = tested on: A549
[2] = tested on: CAKI-1
[3] = tested on: HT-29
[4] = tested on: LOX IMVI
[5] = tested on: MOLT-4
[6] = tested on: NCI-H23
[7] = tested on: NCI-H460
[8] = tested on: NCI-H522
[9] = tested on: OVCAR-5
[10] = tested on: SF-268
[11] = tested on: SF-295
[12] = tested on: SF-539
[13] = tested on: SK-MEL-5
[14] = tested on: SR
[15] = tested on: SW-620
[16] = tested on: TK-10
[17] = tested on: UACC-62
[18] = tested on: DU-145
[19] = tested on: SNB-19

N#CNC(=N)NC(=O)/C=C/C=C/c1ccc(Cl)cc1
GI50 [1]: > 100 µM (inactive)
GI50 [2]: > 100 µM (inactive)
GI50 [3]: > 100 µM (inactive)
GI50 [4]: > 100 µM (inactive)
GI50 [5]: > 100 µM (inactive)
GI50 [6]: > 100 µM (inactive)
GI50 [7]: > 100 µM (inactive)
GI50 [8]: > 100 µM (inactive)
GI50 [9]: > 100 µM (inactive)
GI50 [10]: 52.7 µM (inactive)
GI50 [11]: > 100 µM (inactive)
GI50 [12]: 21.3 µM (inactive)
GI50 [13]: 33.3 µM (inactive)
GI50 [14]: 72.9 µM (inactive)
GI50 [15]: > 100 µM (inactive)
GI50 [16]: 94.2 µM (inactive)
GI50 [17]: > 100 µM (inactive)

COC(=O)c1ccc2cc(O)ccc2c1
GI50 [1]: 69.2 µM (inactive)
GI50 [2]: > 100 µM (inactive)
GI50 [18]: > 100 µM (inactive)
GI50 [3]: 47.6 µM (inactive)
GI50 [4]: 55.6 µM (inactive)
GI50 [5]: 25.2 µM (inactive)
GI50 [6]: 72.3 µM (inactive)
GI50 [8]: 58.6 µM (inactive)
GI50 [9]: > 100 µM (inactive)
GI50 [10]: 21.5 µM (inactive)
GI50 [11]: 53.5 µM (inactive)
GI50 [12]: 89.3 µM (inactive)
GI50 [13]: 56.4 µM (inactive)
GI50 [19]: 79.8 µM (inactive)
GI50 [14]: 22 µM (inactive)
GI50 [15]: > 100 µM (inactive)
GI50 [16]: > 100 µM (inactive)
GI50 [17]: > 100 µM (inactive)

COC1=CC(=O)[C@]2(C)[C@H](C1=O)C(C)[C@H]2c1ccccc1 (stereo partly drawn)
GI50 [1]: > 100 µM (inactive)
GI50 [2]: > 100 µM (inactive)
GI50 [3]: > 100 µM (inactive)
GI50 [4]: > 100 µM (inactive)
GI50 [5]: > 100 µM (inactive)
GI50 [6]: > 100 µM (inactive)
GI50 [7]: > 100 µM (inactive)
GI50 [8]: > 100 µM (inactive)
GI50 [9]: > 100 µM (inactive)
GI50 [10]: > 100 µM (inactive)
GI50 [11]: > 100 µM (inactive)
GI50 [12]: > 100 µM (inactive)
GI50 [13]: > 100 µM (inactive)
GI50 [19]: > 100 µM (inactive)
GI50 [14]: > 100 µM (inactive)
GI50 [15]: > 100 µM (inactive)
GI50 [16]: > 100 µM (inactive)
GI50 [17]: > 100 µM (inactive)

COc1c2cc(C(C)(C)C)cc1Cc1cccc(c1O)Cc1cc(C(C)(C)C)cc(c1OC)Cc1cccc(c1O)Cc1cc(C(C)(C)C)cc(c1OC)Cc1cccc(c1O)C2
GI50 [1]: > 100 µM (inactive)
GI50 [2]: > 100 µM (inactive)
GI50 [18]: > 100 µM (inactive)
GI50 [3]: > 100 µM (inactive)
GI50 [5]: > 100 µM (inactive)
GI50 [6]: > 10 µM (inactive)
GI50 [7]: > 100 µM (inactive)
GI50 [8]: > 100 µM (inactive)
GI50 [9]: > 100 µM (inactive)
GI50 [10]: > 100 µM (inactive)
GI50 [11]: > 100 µM (inactive)
GI50 [12]: > 100 µM (inactive)
GI50 [13]: > 100 µM (inactive)
GI50 [19]: > 100 µM (inactive)
GI50 [14]: > 100 µM (inactive)
GI50 [15]: > 100 µM (inactive)
GI50 [17]: > 100 µM (inactive)

COC(=O)C1CCC2(CC1)NC(=O)NC2=O (stereo not drawn)
GI50 [1]: > 100 µM (inactive)
GI50 [2]: > 100 µM (inactive)
GI50 [3]: > 100 µM (inactive)
GI50 [4]: > 100 µM (inactive)
GI50 [5]: > 100 µM (inactive)
GI50 [6]: > 100 µM (inactive)
GI50 [7]: > 100 µM (inactive)
GI50 [8]: > 100 µM (inactive)
GI50 [9]: > 100 µM (inactive)
GI50 [10]: > 100 µM (inactive)
GI50 [11]: > 100 µM (inactive)
GI50 [12]: > 100 µM (inactive)
GI50 [13]: > 100 µM (inactive)
GI50 [19]: > 100 µM (inactive)
GI50 [14]: > 100 µM (inactive)
GI50 [15]: > 100 µM (inactive)
GI50 [16]: > 100 µM (inactive)
GI50 [17]: > 100 µM (inactive)

COC(=O)/C=C\C1C(C(=O)OC)C2(C(=O)OC)CCC1(C(=O)OC)N2 (stereo not drawn)
GI50 [1]: 20.4 µM (inactive)
GI50 [2]: 2.88 µM (inactive)
GI50 [3]: 21.2 µM (inactive)
GI50 [4]: 13.4 µM (inactive)
GI50 [5]: 3.77 µM (inactive)
GI50 [6]: 18.7 µM (inactive)
GI50 [7]: 21.6 µM (inactive)
GI50 [8]: 0.681 µM (active)
GI50 [9]: 20 µM (inactive)
GI50 [10]: 23.8 µM (inactive)
GI50 [11]: 23.4 µM (inactive)
GI50 [12]: 17.8 µM (inactive)
GI50 [13]: 19.3 µM (inactive)
GI50 [19]: 15.8 µM (inactive)
GI50 [14]: 5.37 µM (inactive)
GI50 [15]: 3.13 µM (inactive)
GI50 [16]: 4.47 µM (inactive)
GI50 [17]: 15.9 µM (inactive)

O=C1CSC2(CC(/C=C/C=C/c3ccccc3)=NN2c2cccc(S(=O)(=O)O)c2)N1c1nc2ccccc2s1 (stereo not drawn)
GI50 [1]: 50.8 µM (inactive)
GI50 [2]: 54.5 µM (inactive)
GI50 [3]: 64.3 µM (inactive)
GI50 [4]: 20 µM (inactive)
GI50 [5]: 21.2 µM (inactive)
GI50 [6]: 43.8 µM (inactive)
GI50 [7]: 31.3 µM (inactive)
GI50 [8]: 4.71 µM (inactive)
GI50 [9]: > 100 µM (inactive)
GI50 [12]: 51.1 µM (inactive)
GI50 [13]: 35.2 µM (inactive)
GI50 [19]: 36.4 µM (inactive)
GI50 [14]: 21.2 µM (inactive)
GI50 [15]: 56.2 µM (inactive)
GI50 [16]: 34.5 µM (inactive)
GI50 [17]: 35.2 µM (inactive)

O=C(O/N=C1\CCCC\C1=C/c1ccccc1)c1ccc([N+](=O)[O-])cc1
GI50 [1]: 88.5 µM (inactive)
GI50 [2]: > 100 µM (inactive)
GI50 [3]: > 100 µM (inactive)
GI50 [4]: > 100 µM (inactive)
GI50 [5]: > 100 µM (inactive)
GI50 [6]: 87.5 µM (inactive)
GI50 [7]: > 100 µM (inactive)
GI50 [8]: 69.8 µM (inactive)
GI50 [9]: > 100 µM (inactive)
GI50 [10]: > 100 µM (inactive)
GI50 [11]: 69.8 µM (inactive)
GI50 [12]: 41.3 µM (inactive)
GI50 [14]: > 100 µM (inactive)
GI50 [15]: > 100 µM (inactive)
GI50 [17]: > 100 µM (inactive)

COC(=O)C(C(=O)C(=O)Nc1c(Cl)cc([N+](=O)[O-])cc1Cl)c1csc(-n2nc(C3=CCCCC3)cc2-c2ccccc2)n1 (stereo not drawn)
GI50 [1]: 64.7 µM (inactive)
GI50 [2]: 46.9 µM (inactive)
GI50 [3]: 25.9 µM (inactive)
GI50 [4]: 43.9 µM (inactive)
GI50 [5]: 52.2 µM (inactive)
GI50 [7]: 82.8 µM (inactive)
GI50 [8]: 45.2 µM (inactive)
GI50 [9]: 35 µM (inactive)
GI50 [10]: 71.8 µM (inactive)
GI50 [11]: 43.8 µM (inactive)
GI50 [12]: 34.8 µM (inactive)
GI50 [19]: 37.3 µM (inactive)
GI50 [14]: 22.5 µM (inactive)
GI50 [15]: 71 µM (inactive)
GI50 [16]: 64.9 µM (inactive)
GI50 [17]: 65.8 µM (inactive)

O=C(c1ccc2c3c(ccc(C(=O)C(F)(F)F)c13)CC2)C(F)(F)F
GI50 [1]: 57.1 µM (inactive)
GI50 [2]: > 100 µM (inactive)
GI50 [3]: 52.1 µM (inactive)
GI50 [4]: 55.7 µM (inactive)
GI50 [5]: 61.4 µM (inactive)
GI50 [6]: 43.3 µM (inactive)
GI50 [7]: 69.8 µM (inactive)
GI50 [8]: 29.8 µM (inactive)
GI50 [9]: > 100 µM (inactive)
GI50 [10]: 51.3 µM (inactive)
GI50 [11]: 44.6 µM (inactive)
GI50 [12]: > 100 µM (inactive)
GI50 [19]: 86.7 µM (inactive)
GI50 [14]: 60.1 µM (inactive)
GI50 [15]: > 100 µM (inactive)
GI50 [16]: 53 µM (inactive)
GI50 [17]: 79.3 µM (inactive)

CC(C)(C)N/N=C(\Cc1occc(=O)c1O)C(=O)Nc1ccc([N+](=O)[O-])cc1[N+](=O)[O-]
GI50 [1]: > 100 µM (inactive)
GI50 [2]: > 100 µM (inactive)
GI50 [3]: > 100 µM (inactive)
GI50 [4]: > 100 µM (inactive)
GI50 [5]: > 100 µM (inactive)
GI50 [6]: > 100 µM (inactive)
GI50 [7]: > 100 µM (inactive)
GI50 [8]: > 100 µM (inactive)
GI50 [9]: > 100 µM (inactive)
GI50 [10]: > 100 µM (inactive)
GI50 [11]: > 100 µM (inactive)
GI50 [12]: > 100 µM (inactive)
GI50 [13]: > 100 µM (inactive)
GI50 [19]: > 100 µM (inactive)
GI50 [14]: > 100 µM (inactive)
GI50 [15]: > 100 µM (inactive)
GI50 [16]: > 100 µM (inactive)
GI50 [17]: > 100 µM (inactive)
